Read-outs that look alike come from different tables or passages of the source.
Legend:
C57BL6/J mice = format: in vivo, mouse; details: for therapeutic effect on kidney damage (H & E, PAS): mevalonate 30 mg/kg i.p. 4 days
Description: (§1) In order to examine whether administration of an isoprenoid-based compound reduces statin-induced adverse effects even in vivo, 100 mg of statin (fluvastatin) was added to 1 kg of feed, and the mixture was fed to 8-week-old C57BL6/J mice for 14 days. Subsequently, mevalonate was administered intraperitoneally to the mice at a dose of 30 mg per kg of mouse body weight for 4 consecutive days, and then lipopolysaccharide (SIGMA) was administered intraperitoneally to mice at a lipopolysaccharide dose of 12 mg per kg of mouse body weight, thereby producing oxysterol in the mouse body. 72 hours after administration of the lipopolysaccharide, the mice were euthanized, and then kidney tissue was extracted by performing cardiac perfusion with 4% paraformaldehyde in DPBS (Dulbecco's phosphate-buffered saline). The extracted kidney tissue was subjected to H & E (Hematoxylin & Eosin) staining, PAS (periodic acid-Schiff) staining and immunohistochemistry of neutrophil gelatinase-associated lipocalin (NGAL) that is an early diagnostic marker of acute renal failure, thereby determining whether acute kidney damage and acute renal failure would occur. In addition, the concentrations of total cholesterol, high-density lipoprotein (HDL) and low-density lipoprotein (LDL) were measured.

[1] = tested on: neutrophil gelatinase-associated lipocalin (NGAL); test: Kidney NGAL immunohistochemistry in fluvastatin-fed mice given mevalonate and lipopolysaccharide (Example 6); format: in vivo, mouse; details: mevalonate 30 mg/kg i.p. 4 days
Description: as §1

[2] = Total cholesterol, HDL and LDL concentrations in mice (Example 6); format: in vivo, mouse; details: statin, oxysterol and mevalonate all administered
Description: as §1

[3] = tested on: human kidney tubule cell line HK-2; test: LDH assay of cell death in HK-2 cells treated with statin and/or oxysterol; format: cell-based; details: 1 μM zaragozic acid with 10 μg/mL 25-hydroxycholesterol
Description: To analyze the relationship between statins and oxysterols, the human kidney tubule cell line HK-2 (human kidney-2 cell line; ATCC CRL-2190™) was seeded into a 24-well plate at a density of 1×10^5 per well. […] Subsequently, the cells were cultured in an incubator at 37° C. under 5% CO2 for 72 hours, and then the degree of cell death in each well was analyzed using an LDH assay kit (Takara, Cat #. MK401).
In order to examine whether the same results appear even in the presence of various types of oxysteols, an experiment was performed in the same manner as Example 1.1. As statin, 5 μM of atorvastatin was used, and as oxysterols, 0.1 μg/mL of 25-hydroxycholesterol, 7-ketocholesterol, cholesterol 5,6-epoxide, 24-hydroxycholesterol and 27-hydroxycholesterol were used.
In order to examine whether isoprenoid-based compounds can reduce adverse effects which are induced by co-administration of oxysterol and statin, the cell line was treated with oxysterol (0.1 μg/mL of 25-hydroxycholestyerol) and statin (5 μM of atorvastatin) in the same manner as Example 1.1, and treated with 10 μM of farnesyl pyrophosphate, 200 μM of mevalonate or 10 μM of geranylgeranyl pyrophosphate, which is an isoprenoid-based compound.

Row | Structure (SMILES) | therapeutic effect on kidney damage (H & E, PAS) (C57BL6/J mice; group with statin and oxysterol co-administered) | therapeutic effect on kidney damage (H & E, PAS) (C57BL6/J mice; kidney damage caused by oxysterol formation, no statin) | damage to kidney tissue (C57BL6/J mice; statin, oxysterol and mevalonate all administered) | expression of NGAL ([1]; oxysterol generation induced after administration of statin) | therapeutic effect on expression of NGAL ([1]; oxysterol generation induced without statin) | concentration of low-density lipoprotein [2] | concentration of total cholesterol [2] | adverse effects / viability of the cells [3]
1 | CC(O)(CCO)CC(=O)O (centres unmarked) [mevalonate] | exhibited a significant effect | showed no therapeutic effect | kidney tissue was not damaged | the expression of NGAL significantly decreased | showed no significant therapeutic effect | decreased | decreased | 
2 | C=C(CC[C@]12O[C@H](C(=O)O)[C@@](O)(C(=O)O)[C@](C(=O)O)(O1)[C@H](OC(=O)/C=C/[C@@H](C)C[C@@H](C)CC)[C@H]2O)[C@@H](OC(C)=O)[C@H](C)Cc1ccccc1 [zaragozic acid] |  |  |  |  |  |  |  | the adverse effects were reduced to some degrees, and thus the viability of the cells increased

From patent US11590150B2, “Pharmaceutical composition for preventing or treating adverse drug reactions by statin” (INDUSTRY-ACADEMIC COOPERATION FOUNDATION, YONSEI UNIVERSITY, priority 2017, dated 2023)
